Consider 4 compounds from paper PMC6384781, “Design, Synthesis, Docking Studies and Monoamine Oxidase Inhibition of a Small Library of 1-acetyl- and 1-thiocarbamoyl-3,5-diphenyl-4,5-dihydro-(1H)-pyrazoles” (Molecules, 2019).

Usually IC50 stands for the concentration that inhibits the measured activity by half. What is called melting point is the temperature of the solid-liquid transition.

In one data set the target is T1, hMAO-A (Homo sapiens, UniProt P21397).
T1 construct: purchased Sigma-Aldrich; host or cells: insect cells (microsomes)
T1 sequence (P21397 1-527): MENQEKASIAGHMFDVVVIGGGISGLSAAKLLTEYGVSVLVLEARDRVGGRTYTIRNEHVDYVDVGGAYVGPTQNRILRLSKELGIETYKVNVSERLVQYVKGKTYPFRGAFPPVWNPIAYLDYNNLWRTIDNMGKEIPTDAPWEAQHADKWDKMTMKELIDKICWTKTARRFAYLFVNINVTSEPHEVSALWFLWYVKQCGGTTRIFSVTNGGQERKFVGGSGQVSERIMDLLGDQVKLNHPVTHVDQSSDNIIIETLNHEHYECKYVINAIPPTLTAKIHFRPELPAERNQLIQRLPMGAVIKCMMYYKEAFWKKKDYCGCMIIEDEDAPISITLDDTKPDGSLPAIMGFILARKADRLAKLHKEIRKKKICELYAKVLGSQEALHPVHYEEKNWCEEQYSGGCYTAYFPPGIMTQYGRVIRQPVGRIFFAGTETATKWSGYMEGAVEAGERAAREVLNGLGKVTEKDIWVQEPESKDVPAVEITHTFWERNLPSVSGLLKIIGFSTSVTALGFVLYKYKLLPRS
Nature of the data set: hMAO-A inhibition, Amplex Red fluorometric assay with kynuramine substrate. Type of data set: biochemical. Particulars: for IC50: recombinant hMAO-A, kynuramine 50 µM, mean ± SD of triplicate, max tested 100 µM. The protocol: (§1) The synthesized compounds P1–P18 were evaluated as hMAO inhibitors using the recombinant hMAOs as enzyme sources and kynuramine as substrate. A fluorometric method based on the Amplex® Red reagent (λex = 560 nm; λem = 590 nm) was used to measure hMAO activity. In this horseradish peroxidase-linked assay, Amplex® Red reacts with hydrogen peroxide that is produced by the MAO catalytic cycle to yield a fluorescent product, resorufin [28]. By thus recording the MAO-catalyzed formation of hydrogen peroxide in the presence of different concentrations of a test inhibitor, sigmoidal plots of enzyme activity versus the logarithm of inhibitor concentration were constructed from which IC50 values were estimated (GraphPad Prism 5). All IC50 values were measured in triplicate and are expressed as the mean ± standard deviation (SD). The inhibitory activities of compounds P1–P18 are summarized in Table 1 along with selectivity index (SI) values which are the ratio of IC50(hMAO-A)/IC50(hMAO-B). SI < 1 indicates selectivity for MAO-A, whereas SI > 1 indicates selectivity for the MAO-B isoform.
(§2) Microsomes from insect cells expressing recombinant hMAO-A or hMAO-B (5 mg protein/mL) served as enzyme sources, and were pre-aliquoted and stored at −70 °C. All enzymatic reactions were carried out to a final volume of 200 µL in black 96-well microtiter plates (Corning). Potassium phosphate buffer (100 mM, pH 7.4, made isotonic with KCl) served as reaction solvent. The reactions contained kynuramine (50 µM), various concentrations of the test inhibitor (0.003–100 μM), horseradish peroxidase (1 unit/mL) and Amplex® Red (200 µM). Stock solutions of the test inhibitors were prepared in DMSO and added to the reactions to yield a final concentration of 4% (v/v) DMSO. The reactions were initiated with the addition of hMAO-A (0.0075 mg protein/mL) or hMAO-B (0.015 mg protein/mL), and incubated at 37 °C for 20 min in a convection oven. At endpoint, the reactions were terminated with the addition of 10 μL pargyline (20 mM) and 10 μL (R)-deprenyl (5 mM) for hMAO-A and hMAO-B, respectively. The concentrations of resorufin in the reactions were determined by fluorescence spectrophotometry (λex = 560 nm, λem = 590 nm). Resorufin was quantitated with a linear calibration curve, which was constructed from standard solutions containing hydrogen peroxide (0.05–1.6 µM). Each standard was prepared to a final volume of 200 μL in potassium phosphate buffer and also contained horseradish peroxidase (1 unit/mL), Amplex® Red (200 µM), 4% DMSO as co-solvent, 10 μL pargyline (20 mM) for hMAO-A and 10 μL (R)-deprenyl (5 mM) for hMAO-B. The IC50 values were determined by constructing sigmoidal curves of MAO catalytic activity versus the logarithm of inhibitor concentration. For this purpose, the one site competition model incorporated into the Prism 5 software package (GraphPad, San Diego, CA, USA) was used. All experiments were carried out in triplicate and the IC50 values are expressed as mean ± standard deviation (SD).

For another data set, the target named is T2, hMAO-B (Homo sapiens, UniProt P27338).
T2 construct: purchased Sigma-Aldrich; host or cells: insect cells (microsomes)
T2 sequence (P27338 1-520): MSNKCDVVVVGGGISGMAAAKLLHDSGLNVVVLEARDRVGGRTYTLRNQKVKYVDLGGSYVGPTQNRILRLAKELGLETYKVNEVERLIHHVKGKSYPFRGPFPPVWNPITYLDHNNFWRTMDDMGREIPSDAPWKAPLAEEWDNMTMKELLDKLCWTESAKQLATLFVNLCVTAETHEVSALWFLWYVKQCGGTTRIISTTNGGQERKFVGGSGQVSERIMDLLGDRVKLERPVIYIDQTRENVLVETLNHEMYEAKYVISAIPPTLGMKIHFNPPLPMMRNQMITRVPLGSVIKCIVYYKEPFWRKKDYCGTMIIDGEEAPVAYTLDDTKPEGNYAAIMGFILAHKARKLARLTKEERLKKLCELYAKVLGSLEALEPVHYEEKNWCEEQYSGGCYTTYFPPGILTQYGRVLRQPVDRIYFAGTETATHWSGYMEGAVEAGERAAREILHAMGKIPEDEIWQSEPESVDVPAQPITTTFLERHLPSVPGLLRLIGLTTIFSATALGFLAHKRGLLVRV
Briefly: hMAO-B inhibition, Amplex Red fluorometric assay with kynuramine substrate. Type of data set: biochemical. Conditions: for SI (selectivity index for the hMAO-B isoform): ratio IC50(hMAO-A)/IC50(hMAO-B), SI > 1 = MAO-B selective; for IC50: recombinant hMAO-B, kynuramine 50 µM, mean ± SD of triplicate, max tested 100 µM. The protocol: as §1, §2

`CC(=O)N1N=C(c2ccc(OCC=C(C)C)cc2)CC1c1ccccc1C` (centres unmarked) [Compound P9, 1-(3-(4-((3-methylbut-2-en-1-yl)oxy)phenyl)-5-(o-tolyl)-4,5-dihydro-1H-pyrazol-1-yl)ethan-1-one] returned a melting point of 110 to 112 °C. The “fold higher inhibitory activity for hMAO-A than for hMAO-B” value on hMAO-A (hMAO-A versus hMAO-B) came out at 3 fold. On hMAO-A, the IC50 came to 9.13 ± 0.34 µM. On hMAO-B, the “SI (selectivity index for the hMAO-B isoform)” value is given as 0.33 and the IC50 is 27.3 ± 0.57 µM.
Regarding `CC(=O)N1N=C(c2ccc(OCC=C(C)C)cc2)CC1c1cccc(C)c1` (centres unmarked) [Compound P10, 1-(3-(4-((3-methylbut-2-en-1-yl)oxy)phenyl)-5-(m-tolyl)-4,5-dihydro-1H-pyrazol-1-yl)ethan-1-one], the melting point lay within 120 to 122 °C. Further, at hMAO-A, the IC50 came to 86.8 ± 14.7 µM. Moreover, at hMAO-B, the “SI (selectivity index for the hMAO-B isoform)” value worked out at 26.96 and the IC50 was 3.22 ± 0.48 µM.
The like results for `CC(=O)N1N=C(c2ccc(OCC=C(C)C)cc2)CC1c1ccc(C)cc1C` (centres unmarked) [Compound P12, 1-(5-(2,4-dimethylphenyl)-3-(4-((3-methylbut-2-en-1-yl)oxy)phenyl)-4,5-dihydro-1H-pyrazol-1-yl)ethan-1-one] were, in that order, 117 to 119 °C, 80.6 ± 10 µM, less than 0.81 and more than 100 µM.
Consider `C=CCOc1ccc(C2=NN(C(C)=O)C(c3ccccc3)C2)cc1` (centres unmarked) [Compound P7, 1-(3-(4-(allyloxy)phenyl)-5-phenyl-4,5-dihydro-1H-pyrazol-1-yl)ethan-1-one], for which the melting point fell in the range of 95 to 98 °C. In addition, the half-inhibitory concentration (IC50) on hMAO-A came to 39.3 ± 5.94 µM. For the same compound, on hMAO-B, the “SI (selectivity index for the hMAO-B isoform)” value was 2.72 and the IC50 turned out to be 14.5 ± 2.78 µM.
